The test concerns the target SARS-CoV 3CL^pro (Severe acute respiratory syndrome coronavirus, UniProt P0C6X7). The format is biochemical.
Consider `O=c1cc(-c2ccc(O)c(-c3c(O)cc(O)c4c(=O)cc(-c5ccc(O)cc5)oc34)c2)oc2cc(O)cc(O)c12` [Compound 9, amentoflavone], for which the Inhibition type entry is “Noncompetitive (13.8 ± 1.5)”.

`COc1ccc(-c2cc(=O)c3c(O)cc(O)cc3o2)cc1-c1c(O)cc(O)c2c(=O)cc(-c3ccc(O)cc3)oc12` [Compound 10, bilobetin]: the Inhibition type result is given as “Noncompetitive (80.4 ± 4.0)”.

In the case of `COc1cc(O)c2c(=O)cc(-c3ccc(OC)c(-c4c(O)cc(O)c5c(=O)cc(-c6ccc(O)cc6)oc45)c3)oc2c1` [Compound 11, ginkgetin], the Inhibition type result is “Noncompetitive (30.2 ± 2.6)”.

In the case of `COc1ccc(-c2cc(=O)c3c(O)cc(O)c(-c4cc(-c5cc(=O)c6c(O)cc(OC)cc6o5)ccc4OC)c3o2)cc1` [Compound 12, sciadopitysin], the Inhibition type result was “Noncompetitive (35.6 ± 1.1)”.

These data come from publication PMC7126309 (Bioorganic & Medicinal Chemistry, 2010).
